Source: patent publication US20140315973A1, “PARP-1 INHIBITORS” (priority 2010, published 2014)

Columns and labels:
[1] = test system: HBV core promoter; assay: Dual-luciferase reporter assay of HBV core promoter; assay type: cell-based, HBV genotype A
Description: The HBV core promoter deletions were cloned using a multi-step strategy. First, the wild-type core promoter from HBV genotype A was inserted via KpnI and HindIII sites on the PGL3 Basic vector. Using this as the template, PGLF (5′ TCCCCAGTGCAAGTGCAGG) was used with reverse primer BX, where “X” denotes the deletion number and contains the nucleotide sequence flanking the 3′ end of the deletion. This amplifies the 5′ half of mutant core promoter. Primer CX containing nucleotide sequences flanking the 5′ end of the deletion site was then used with reverse primer PGLR (5′ […]) to synthesize the 3′ end of the mutant promoter. The 2 halves were annealed via their complementary sequences and amplified using primers PGLF and PGLR. PCR was performed using the Expand High Fidelity PCR System (Roche), and ran on 1% agarose gels in TBE buffer. DNA of appropriate sizes were extracted using the Qiaquick Gel Extraction Kit (Qiagen), double-digested with enzymes from New England BioLabs, then annealed using the Quick Ligation Kit.
Assays were performed with the Dual-Luciferase® Reporter Assay System (Promega) with modifications. HepG2 cells were seeded 18 hours prior to transfection in 24-well plates in triplicates at a density of 1.5×10^5 cells per well. Transfection was performed with 2.2 μl Lipofectamine 2000 (Invitrogen), 1 μg of PGL3 Basic construct plasmid and 15 ng of Renilla-luciferase construct per well. Additionally, 250 ng of over-expression plasmids for PARP-1 mutants were used when indicated. Transfected cells were lysed with 60 μl lysis buffer at 37° C. on a shaking incubator for 20 minutes after washing thrice with ice-cold PBS 30 hours post-transfection and 50 μl of the lysate was transferred on ice into black 96-well plates with clear bottoms (Corning), and luminescence measured with the GloMax® Multi-Microplate Multimode Reader (Promega).

[2] = test system: HepG2 cells; assay: Viable HBV-RFP transfected HepG2 cells; assay type: cell-based; settings: 15 μM, 72 hours after PARP inhibition
Description: (§1) The coding sequence for red fluorescent protein (RFP) was cut from the pTurboFP635N (Evrogen) and inserted into the pcDNA3.1+ vector containing the HBV construct into the MCS via KpnI and NotI sites.

[3] = test system: HBV; assay: HBV transcripts in HepG2 cells transfected with HBV-RFP; assay type: cell-based, HBV genotype A; settings: 15 μM, added 24 hours after transfection, 48 hours later
Description: Full-length replicative HBV genotype A (approximately 1.1X HBV genome starting from nucleotide 1535, ending at nucleotide 1930) driven by its own core promoter cloned from another construct and inserted into pcDNA3.1+ via the MfeI and MluI restriction sites, […] of the CMV promoter. Primers used are as follows: […]
as §1

[4] = test system: breast or ovarian cancer; settings: cited from earlier work

## NC(=O)c1cccc(N)c1 [3-AB, 3-aminobenzamide]
[1]; HepG2, inhibitor added 24 hours after transfection
  transcription (luciferase expression) at wild-type HBV core promoter: increased transcription at the HBV core promoter in a dose-dependent manner
[1]; HepG2 and Huh-7
  luciferase expression, mutant HBV core promoter with deletion of the PARP-1 binding site (Del-PARP1 motif): negligible effect
[1]; Huh-7
  luciferase expression, wild-type HBV core promoter: increased luciferase expression

## CN(C)CC(=O)Nc1ccc2[nH]c(=O)c3ccccc3c2c1 [PJ-34]
[2]
  relative percentage of viable cells that were HBV-transfected vs DMSO control: significantly higher
[3]
  increase in relative amounts of HBV transcripts: more than 3 fold

## O=C(c1cc(Cc2n[nH]c(=O)c3ccccc23)ccc1F)N1CCN(C(=O)C2CC2)CC1 [olaparib]
[4]; 60 patients, including 22 BRCA mutation carriers
  durable objective antitumor activity: observed only in confirmed carriers of a BRCA1 or BRCA2 mutation
[4]; Twelve of 19 BRCA carriers
  BRCA carriers with ovarian, breast, or prostate cancers showing a clinical benefit: 63%
[4]; phase 1, orally active
  side-effect profile: acceptable side-effect profile
